Several values for one entry are separate records, joined by “and”; a condition that tells them apart may be missing. Equal entries are not always repeated.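 Assay format: 96-well plates, 48-hour exposure. GI50 = concentration required for 50% inhibition of growth. TGI marks complete inhibition of growth.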
Assays:
Assay in all cases: NCI tumour cell line growth inhibition, 48 h
RPMI-8226 leukemia = test system: RPMI-8226 leukemia
OVCAR-4 ovarian = test system: OVCAR-4 ovarian
HCC-2998 colon = test system: HCC-2998 colon
OVCAR-3 ovarian = test system: OVCAR-3 ovarian
HT29 colon = test system: HT29 colon
SK-MEL-28 melanoma = test system: SK-MEL-28 melanoma
NCI-H460 lung = test system: NCI-H460 lung
OVCAR-8 ovarian = test system: OVCAR-8 ovarian
NCI-H522 lung = test system: NCI-H522 lung
MDA-MB-231 breast = test system: MDA-MB-231 breast
M14 melanoma = test system: M14 melanoma
HOP-92 NSCLC = test system: HOP-92 NSCLC
SW-620 colon = test system: SW-620 colon
HCT-15 colon = test system: HCT-15 colon
PC-3 prostate = test system: PC-3 prostate
BT-549 breast = test system: BT-549 breast
HCT-116 colon = test system: HCT-116 colon
HL-60(TB) leukemia = test system: HL-60(TB) leukemia
OVCAR-5 ovarian = test system: OVCAR-5 ovarian
MALME-3M melanoma = test system: MALME-3M melanoma
ACHN renal = test system: ACHN renal
COLO 205 colon = test system: COLO 205 colon
SNB-19 CNS = test system: SNB-19 CNS
A549 NSCLC = test system: A549 NSCLC
NCI/ADR-RES ovarian = test system: NCI/ADR-RES ovarian
KM12 colon = test system: KM12 colon
NCI-H23 lung = test system: NCI-H23 lung
A498 renal = test system: A498 renal
UACC-62 melanoma = test system: UACC-62 melanoma
MCF7 breast = test system: MCF7 breast
UACC-257 melanoma = test system: UACC-257 melanoma
SF-268 CNS = test system: SF-268 CNS
U251 CNS = test system: U251 CNS
SK-MEL-5 melanoma = test system: SK-MEL-5 melanoma
LOX IMVI melanoma = test system: LOX IMVI melanoma
SK-MEL-2 melanoma = test system: SK-MEL-2 melanoma
K-562 leukemia = test system: K-562 leukemia
SN12C renal = test system: SN12C renal
UO-31 renal = test system: UO-31 renal
SF-295 CNS = test system: SF-295 CNS
CAKI-1 renal = test system: CAKI-1 renal
EKVX NSCLC = test system: EKVX NSCLC
CCRF-CEM leukemia = test system: CCRF-CEM leukemia
MDA-MB-435 = test system: MDA-MB-435
MOLT-4 leukemia = test system: MOLT-4 leukemia
IGROV1 ovarian = test system: IGROV1 ovarian
HS 578T breast = test system: HS 578T breast
TK-10 renal = test system: TK-10 renal
SK-OV-3 ovarian = test system: SK-OV-3 ovarian
SR leukemia = test system: SR leukemia
NCI-H226 lung = test system: NCI-H226 lung
T-47D breast = test system: T-47D breast
SNB-75 CNS = test system: SNB-75 CNS
HOP-62 NSCLC = test system: HOP-62 NSCLC
786-0 renal = test system: 786-0 renal
DU-145 prostate = test system: DU-145 prostate
SF-539 CNS = test system: SF-539 CNS

Compound `Cc1sc(Cc2ccccc2)nc1-c1ccc(N)cc1` has a TGI (RPMI-8226 leukemia) of 71.4 µM, a TGI (OVCAR-4 ovarian) of 51.1 µM and a TGI (HCC-2998 colon) of 35.5 µM. It also gave a TGI (OVCAR-3 ovarian) of 68.8 µM, a TGI (HT29 colon) of 54.8 µM and a TGI (SK-MEL-28 melanoma) of 61.4 µM. For the same compound, the TGI (NCI-H460 lung) was 50.2 µM, the TGI (OVCAR-8 ovarian) was greater than 100 µM and the TGI (NCI-H522 lung) was 38.7 µM. The TGI (MDA-MB-231 breast) was 84.8 µM, the TGI (M14 melanoma) was 43.7 µM and the TGI (HOP-92 NSCLC) was 43.4 µM. For the same compound, the TGI (SW-620 colon) was greater than 100 µM, the TGI (HCT-15 colon) was 46.9 µM and the TGI (PC-3 prostate) was 89.7 µM. For the same compound, the TGI (BT-549 breast) was 83.4 µM, the TGI (HCT-116 colon) was 40.7 µM and the TGI (HL-60(TB) leukemia) was greater than 100 µM. The TGI (OVCAR-5 ovarian) was greater than 100 µM, the TGI (MALME-3M melanoma) was 90.2 µM and the TGI (ACHN renal) was greater than 100 µM. For the same compound, the TGI (COLO 205 colon) was 56.2 µM, the TGI (SNB-19 CNS) was greater than 100 µM and the TGI (A549 NSCLC) was greater than 100 µM. The TGI (NCI/ADR-RES ovarian) was greater than 100 µM, the TGI (KM12 colon) was 46.3 µM and the TGI (NCI-H23 lung) was greater than 100 µM. For the same compound, the TGI (A498 renal) was greater than 100 µM, the TGI (UACC-62 melanoma) was 37.8 µM and the TGI (MCF7 breast) was 44.1 µM. The TGI (UACC-257 melanoma) was 84.5 µM, the TGI (SF-268 CNS) was greater than 100 µM and the TGI (U251 CNS) was 74.7 µM. It also gave a TGI (SK-MEL-5 melanoma) of 35.6 µM, a TGI (LOX IMVI melanoma) of 29.8 µM and a TGI (SK-MEL-2 melanoma) of 37.7 µM. It also gave a TGI (K-562 leukemia) greater than 100 µM, a TGI (SN12C renal) of 40.2 µM and a TGI (UO-31 renal) greater than 100 µM. The TGI (SF-295 CNS) was greater than 100 µM, the TGI (CAKI-1 renal) was 83.8 µM and the TGI (EKVX NSCLC) was greater than 100 µM. It also gave a TGI (CCRF-CEM leukemia) of 72.8 µM, a TGI (MDA-MB-435) of 37.7 µM and a TGI (MOLT-4 leukemia) of 51.1 µM. The TGI (IGROV1 ovarian) was 89.8 µM, the TGI (HS 578T breast) was greater than 100 µM and the TGI (TK-10 renal) was greater than 100 µM.
With `CS(=O)(=O)c1ccc(C(=O)Nc2ccc(Cl)c(-c3ccccn3)c2)c(Cl)c1` the TGI (RPMI-8226 leukemia) was > 100 µM and 10.6 µM, the GI50 (OVCAR-4 ovarian) was 29.7 µM and the TGI (OVCAR-4 ovarian) was greater than 100 µM. The GI50 (SK-OV-3 ovarian) was greater than 100 µM, the TGI (SK-OV-3 ovarian) was greater than 100 µM and the TGI (SR leukemia) was > 100 µM and 20.9 µM. The TGI (SK-MEL-28 melanoma) was > 100 µM and 16.3 µM, the TGI (OVCAR-8 ovarian) was > 100 µM and 25.5 µM and the TGI (NCI-H522 lung) was > 94 µM and 9.43 µM. The TGI (MDA-MB-231 breast) was > 96.2 µM and 15.7 µM, the TGI (M14 melanoma) was > 100 µM and 11.1 µM and the TGI (HOP-92 NSCLC) was > 100 µM and 10.7 µM. The TGI (SW-620 colon) was > 100 µM and 13.2 µM, the TGI (HCT-15 colon) was > 100 µM and 21.2 µM and the TGI (NCI-H226 lung) was > 100 µM and 26.5 µM. The TGI (PC-3 prostate) was > 100 µM and 33.7 µM, the TGI (T-47D breast) was > 100 µM and 12.1 µM and the GI50 (SNB-75 CNS) was 14.4 µM and 3.14 µM. For the same compound, the TGI (SNB-75 CNS) was > 100 µM and 79 µM, the TGI (OVCAR-5 ovarian) was > 100 µM and 94.6 µM and the GI50 (MALME-3M melanoma) was 41.9 µM and 5.24 µM. The TGI (MALME-3M melanoma) was > 100 µM and 31.6 µM, the TGI (ACHN renal) was > 100 µM and 23.5 µM and the TGI (SNB-19 CNS) was greater than 100 µM. For the same compound, the TGI (A549 NSCLC) was > 100 µM and 21.2 µM, the TGI (NCI/ADR-RES ovarian) was > 100 µM and 25.7 µM and the TGI (KM12 colon) was > 100 µM and 10.2 µM. The TGI (NCI-H23 lung) was > 100 µM and 17.2 µM, the TGI (A498 renal) was > 100 µM and 46.3 µM and the TGI (HOP-62 NSCLC) was > 100 µM and 19.3 µM. The GI50 (786-0 renal) was 63.2 µM, the TGI (786-0 renal) was greater than 100 µM and the TGI (MCF7 breast) was > 100 µM and 14.9 µM. For the same compound, the TGI (SF-268 CNS) was > 100 µM and 66.5 µM, the TGI (U251 CNS) was > 100 µM and 15.8 µM and the TGI (LOX IMVI melanoma) was > 100 µM and 10.1 µM. For the same compound, the TGI (K-562 leukemia) was > 100 µM and 45.7 µM, the TGI (SN12C renal) was > 100 µM and 51.3 µM and the GI50 (UO-31 renal) was 12.1 µM and 3.66 µM. For the same compound, the TGI (UO-31 renal) was > 42.6 µM and 27 µM, the TGI (DU-145 prostate) was greater than 100 µM and the TGI (SF-539 CNS) was > 100 µM and 13.7 µM. For the same compound, the TGI (EKVX NSCLC) was > 100 µM and 14.9 µM, the TGI (CCRF-CEM leukemia) was greater than 100 µM and the TGI (MOLT-4 leukemia) was > 100 µM and 14.7 µM. The TGI (IGROV1 ovarian) was greater than 100 µM, the TGI (HS 578T breast) was greater than 100 µM and the TGI (TK-10 renal) was > 100 µM and 34.7 µM.
